Test results from PMC4257840 (Journal of Medicinal Chemistry, 2014).

Columns and labels:
Format in all cases: biochemical
[1] = biological target: T1, Factor VIIa from human plasma (Homo sapiens, UniProt P08709); test: Protease counter-screening: Factor VIIa
T1 construct: incubated with 25 nM Factor VIIa from; from tissue; host or cells: human plasma
Description: (§1) Appendix 7. Protease Counter -Screening
(§2) Protease counter-screeni ng was performed using the methods described below. Initial screening was conducted in duplicate using a single test substance concentration of 10 µ M .
(§3) Additional assays were conducted in replicate for selected pairin gs of test s ubstance and enz yme in order to enable the determination of IC50 values using conventional procedures.
(§4) Determination of K i was made using the Batch K i program (Biokin Ltd, Pullman, WA) to derive values from the Morrison equation: […]
(§5) Where [E ] is the active enz yme concentration, Kiapp is the apparent inhibition const ant, v 0 is the control velocit y in the absence of inhibitors, vb is the background velocity, v is the initial reaction velocit y in the presence of inhibitor, and I is the inhibitor concentration.Thence:
(§6) Where [S ] is the substrate concentration and KM is the Michealis constant. […]
Test compound or vehicle was pre- incubated with 600
Factor VIIa: Test compound or vehicle was pre- incubated with 25 nM Factor VIIa from human plasma in modified 50 mM Tris-HCl buffer pH 7.6 for 15 min at 25 °C. The reaction was initiated by addition of 1 µM N-CH3-SO2-D-FGR-pNA for another 120 min incubation period.
The amount of pNA formed was read spectrophotometricall y at 405 nm. […]

Human liver cathepsin L = biological target: T2, Human liver cathepsin L (Homo sapiens, UniProt P07711); test: Protease counter-screening: Cathepsin L
T2 construct: Human liver cathepsin L was used as the; from tissue; host or cells: human liver

[2] = biological target: T3, human recombinant caspase 3 (Homo sapiens, UniProt P42574); test: Protease counter-screening: Caspase 3
T3 construct: host or cells: E. coli
Description: as §1, §2, §3, §4, §5, §6
(§7) by addition of 50 µM Ac-DEVD-AMC for another 60 min incubation period. The amount of AMC formed was determined fluorimetricall y (excitation 360 nm/emission 465 nm). […]
(§8) by addition of 25 µM Ac-LEH D-A FC for another 60 min incubation period. The amount of amino-4- trifluorometh ylcoumarin (AFC) formed determined fluorimetrically (400nm/ 510nm).
(§9) Cathepsin C: Cathepsin C from bovine spleen was used as the source of enz yme. […] T he amount of AMC product formed was read spectrofluorimetrically

[3] = biological target: T4, human recombinant caspase 9 (Homo sapiens, UniProt P55211); test: Protease counter-screening: Caspase 9
T4 construct: host or cells: E. coli
Description: as §1, §2, §3, §4, §5, §6, §7, §8, §9

[4] = biological target: T5, Human recombinant ADAM-17 (Homo sapiens, UniProt P78536); test: Protease counter-screening: ADAM-17/TACE
T5 construct: host or cells: Sf21 insect cells
Description: as §1, §2, §3, §4
MMP-9: Human recombinant MMP-9 proenz yme ex pressed in mammalian cells was activated with APMA for 60 min at 37 °C. […] The amount of MCA-P LG formed was read spectrofluorimetricall y at 340 nm/400 nm.
ADAM-17/TACE: Human recombinant ADAM-17 expressed in Sf21 insect cells was used as enz yme sour ce. […] T he amount of MCA-P LAQA formed w as read spectro fluorimetricall y at 340 nm/400 nm.
Angiotensin converting enzyme: Test compound or vehicle was pre- incubated in modified HEPES buffer pH 7.5 for 15 min at 25 °C with 31 mU/mL angiotensin converting enz yme from rabbit lung. […] The amount of substrate remaining was read spectrophotometricall y at 340 nm and used to deri ve the extent of reaction and its inhibition. […]

T5 sequence (P78536 215-824): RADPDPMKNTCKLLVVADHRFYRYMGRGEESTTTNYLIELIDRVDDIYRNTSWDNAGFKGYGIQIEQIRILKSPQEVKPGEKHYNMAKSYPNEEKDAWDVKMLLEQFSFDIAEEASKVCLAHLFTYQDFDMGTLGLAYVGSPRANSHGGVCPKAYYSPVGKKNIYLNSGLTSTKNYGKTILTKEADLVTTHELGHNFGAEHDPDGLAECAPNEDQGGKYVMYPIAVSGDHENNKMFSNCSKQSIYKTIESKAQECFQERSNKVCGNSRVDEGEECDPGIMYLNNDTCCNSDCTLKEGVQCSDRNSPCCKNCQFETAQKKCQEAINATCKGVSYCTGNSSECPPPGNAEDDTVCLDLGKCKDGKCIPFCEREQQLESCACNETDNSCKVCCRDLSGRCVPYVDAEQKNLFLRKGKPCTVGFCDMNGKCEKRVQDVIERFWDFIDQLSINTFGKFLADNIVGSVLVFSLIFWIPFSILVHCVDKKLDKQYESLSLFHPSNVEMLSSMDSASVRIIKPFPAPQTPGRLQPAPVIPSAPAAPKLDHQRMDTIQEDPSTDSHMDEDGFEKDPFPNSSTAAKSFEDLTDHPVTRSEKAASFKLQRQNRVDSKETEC
T4 sequence (P55211 1-315 limits assumed): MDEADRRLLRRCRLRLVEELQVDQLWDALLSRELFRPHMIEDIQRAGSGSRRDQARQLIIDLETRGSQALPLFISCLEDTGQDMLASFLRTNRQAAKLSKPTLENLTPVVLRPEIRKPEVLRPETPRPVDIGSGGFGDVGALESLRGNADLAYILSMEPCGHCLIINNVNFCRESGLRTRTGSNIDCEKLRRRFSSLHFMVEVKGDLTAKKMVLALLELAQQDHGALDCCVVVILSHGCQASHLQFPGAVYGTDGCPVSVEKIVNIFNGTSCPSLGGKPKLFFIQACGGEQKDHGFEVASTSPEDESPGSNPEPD
T4 sequence (P55211 331-416 limits assumed): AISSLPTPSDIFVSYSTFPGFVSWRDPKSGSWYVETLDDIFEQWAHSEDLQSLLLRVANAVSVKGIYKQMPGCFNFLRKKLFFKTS
T2 sequence (P07711 114-333): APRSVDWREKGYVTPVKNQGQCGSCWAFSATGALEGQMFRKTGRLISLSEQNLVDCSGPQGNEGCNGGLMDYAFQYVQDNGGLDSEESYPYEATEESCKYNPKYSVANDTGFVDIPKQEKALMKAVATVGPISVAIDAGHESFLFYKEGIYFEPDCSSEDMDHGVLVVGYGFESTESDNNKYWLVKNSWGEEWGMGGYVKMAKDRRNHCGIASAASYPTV
T1 sequence (P08709 213-466 limits assumed): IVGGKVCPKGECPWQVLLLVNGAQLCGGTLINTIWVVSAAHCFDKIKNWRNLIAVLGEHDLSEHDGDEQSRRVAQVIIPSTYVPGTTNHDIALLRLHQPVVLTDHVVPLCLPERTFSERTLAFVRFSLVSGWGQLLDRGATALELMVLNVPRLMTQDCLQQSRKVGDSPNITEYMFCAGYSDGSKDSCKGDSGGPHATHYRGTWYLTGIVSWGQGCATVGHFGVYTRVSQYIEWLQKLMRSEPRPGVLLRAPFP
T1 sequence (P08709 61-212 limits assumed): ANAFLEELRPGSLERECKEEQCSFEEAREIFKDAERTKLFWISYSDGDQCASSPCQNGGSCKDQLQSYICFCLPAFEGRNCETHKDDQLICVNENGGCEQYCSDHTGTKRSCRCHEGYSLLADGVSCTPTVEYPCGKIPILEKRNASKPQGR
T3 sequence (P42574 29-175 limits assumed): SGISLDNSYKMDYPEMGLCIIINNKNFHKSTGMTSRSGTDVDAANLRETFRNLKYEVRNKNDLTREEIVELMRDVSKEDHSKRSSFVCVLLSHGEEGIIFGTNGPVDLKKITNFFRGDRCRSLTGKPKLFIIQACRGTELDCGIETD
T3 sequence (P42574 176-277 limits assumed): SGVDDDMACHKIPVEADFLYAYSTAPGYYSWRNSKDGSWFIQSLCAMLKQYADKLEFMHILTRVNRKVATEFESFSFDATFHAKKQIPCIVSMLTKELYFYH

Molecule CC(C)[C@H](NC(=O)[C@H](C)NC(=O)[C@@H](NC(=O)c1ccccc1)C(C)(C)C)C(=O)C(=O)NCc1ccccc1 [Compound 38, N-{(S)-1-[(S)-1-((S)-1-Benzylaminooxalyl-2-methyl-propylcarbamoyl)-ethylcarbamoyl]-2,2-dimethyl-propyl}-benzamide] has an inhibition at 10 µM [1] of 1%, an inhibition at 10 µM (Human liver cathepsin L) of 34% and an inhibition at 10 µM [2] of 1%. The inhibition at 10 µM [3] was 0% and the inhibition at 10 µM [4] was 0%.
